Laboratory results from paper PMC9230590, “Pharmacokinetics and Tissue Distribution of Enavogliflozin in Mice and Rats” (Pharmaceutics, 2022).
Where “and” joins values, the source holds several entries; their conditions need not be identical. Equal values may be shown once.

Key:
[1] = system: hepatocytes; parameters: method as in PMID 32932946; settings: mouse hepatocytes; cited from earlier work
[2] = Pharmacokinetics after oral administration in mice; assay type: in vivo, ICR mice; settings: for AUC(0-inf) / AUC(0-t) / Cmax / half-life / MRT / Tmax / bioavailability: ICR, mouse, plasma; for bioavailability: po; for AUC∞/D / Cmax/D: dose normalized
Protocol: Mice were fasted with water ad libitum for at least 12 h before oral administration with enavogliflozin. Fifty-four mice were randomly divided into nine groups (n = 6 per group, Table 1) and were administered an enavogliflozin solution at doses of 0.3, 1, and 3 mg/kg via oral gavage. The drug was dissolved in a mixture of 10% DMSO and 90% saline. Blood samples were collected at 0, 0.083, 0.25, 0.5, 1, 2, 4, 8, and 24 h with the same procedures described above and provided in Table 1.
(§1) Concentrations of enavogliflozin in plasma and tissue homogenate samples were analyzed using an Agilent 6430 triple quadrupole liquid chromatography-mass spectrometry (LC–MS/MS) system (Agilent, Wilmington, DE, USA) following a previously published method.
(§2) The data were expressed as the means ± standard deviation for the groups. Pharmacokinetic parameters, such as the area under the plasma concentration–time curve during the period of observation (AUClast), AUC to infinite time (AUC∞), clearance (CL), and volume of distribution at steady-state (Vd,ss), the terminal half-life (t1/2), and mean residence time (MRT) were calculated using non-compartment analysis with WinNonlin software (version 5.1; Pharsights, Cary, NC, USA). The AUC ratios were calculated by dividing the AUClast of enavogliflozin in the tissue samples by the plasma AUClast values of enavogliflozin [15].

[3] = system: SGLT2; parameters: method as in PMID 32183468; settings: cited from earlier work
[4] = Pharmacokinetics after oral administration in rats; assay type: in vivo, Sprague Dawley (SD) rats; settings: for AUC∞/D / Cmax/D: dose normalized; for Cmax/D: in (ng/mL)/(mg/kg); for AUC(0-t) / AUC(0-inf) / Cmax / half-life / MRT / Tmax / bioavailability: rat, plasma; for bioavailability: po
Protocol: Rats were fasted with water ad libitum for at least 12 h before the oral administration of enavogliflozin. Eighteen rats were randomly divided into three groups (n = 6 per each group) and administered the drug dissolved in a mixture of 10% DMSO and 90% saline at doses of 0.3, 1, and 3 mg/kg by oral gavage. Blood samples were collected at 0, 0.083, 0.25, 0.5, 1, 2, 4, 6, 8, and 24 h with the same procedures described above.
as §1, §2

[5] = Recovery from urine and feces over 72 h in rats; assay type: in vivo, Sprague Dawley (SD) rats; settings: for Recovery, Feces / Recovery, Urine: parent form
Protocol: Three rats received enavogliflozin (1 mg/kg) intravenously and were returned to metabolic cages with food and water ad libitum and urine and feces samples were collected every 24 h for 72 h. Four rats received enavogliflozin (1 mg/kg) by oral gavage and were returned to their metabolic cages to collect urine and feces samples every 24 h for 72 h with the same protocols described above.
as §1
Aliquots of plasma or urine (30 µL each) and tissue homogenate (50 µL each) were added to 100 µL of aqueous solution of d4-enavogliflozin (IS, 20 ng/mL), and vigorously mixed with 500 µL MTBE for 15 min. After centrifugation at 16,000× g for 5 min, samples were kept for 1 h, at a temperature of −80 °C to freeze the aqueous layer freeze. The organic upper layer was then transferred to a clean tube and evaporated to dryness under a gentle stream of nitrogen. The dried extract was reconstituted in 150 µL of mobile phase, and a 3 µL aliquot was injected into the LC–MS/MS system. Enavogliflozin was separated on a Synergi Polar RP column (2.0 × 150 mm, 4 µm particle size; Phenomenex, Torrence, CA, USA) using a isocratic mobile phase consisting of water (15%) and methanol (85%) containing 0.1% formic acid at a flow rate of 0.25 mL/min.

## OC[C@H]1O[C@@H](c2cc(Cc3ccc(C4CC4)cc3)c(Cl)c3c2CCO3)[C@H](O)[C@@H](O)[C@@H]1O [enavogliflozin, (2S,3R,4R,5S,6R)-2-(7-chloro-6-(4-cyclopropylbenzyl) -2,3-dihydrobenzofuran-4-yl)-6-(hydroxymethyl)tetrahydro-2H-pyran-3,4,5-triol]
[1]
  In vitro hepatic clearance: 36.5 mL/min/kg
[2]; PO 0.3 mg/kg
  AUC(0-inf): 498 ± 79 ng·h/mL
  AUC(0-t): 488 ± 77.9 ng·h/mL
  Cmax: 72.1 ± 10.5 ng/mL
  half-life: 4.3 ± 0.5 h
  MRT: 5.7 ± 0.5 h
  Tmax: 1.5 ± 0.5 h
  AUC∞/D: 1658.9 ± 263.5
  Cmax/D: 240.5 ± 35.0
[2]; PO 1 mg/kg
  AUC(0-inf): 1370 ± 270 ng·h/mL
  AUC(0-t): 1360 ± 270 ng·h/mL
  Cmax: 216 ± 94.1 ng/mL
  half-life: 3.5 ± 0.2 h
  MRT: 5.7 ± 0.5 h
  AUC∞/D: 1373.8 ± 269.6
  Cmax/D: 216.1 ± 94.1
[2]; PO 3 mg/kg
  AUC(0-inf): 4760 ± 543 ng·h/mL
  AUC(0-t): 4740 ± 532 ng·h/mL
  Cmax: 943 ± 231 ng/mL
  half-life: 3.3 ± 0.4 h
  MRT: 5.3 ± 0.5 h
  Tmax: 0.9 ± 0.3 h
  AUC∞/D: 1587.0 ± 181.1
  Cmax/D: 314.3 ± 76.9
[2]; 0.3 mg/kg, PO 0.3 mg/kg, AUC∞,PO / AUC∞,IV, read-out: BA (absolute bioavailability)
  bioavailability: 97.2%
[2]; 1 mg/kg, PO 1 mg/kg, AUC∞,PO / AUC∞,IV, read-out: BA (absolute bioavailability)
  bioavailability: 84.5%
[2]; 3 mg/kg, PO 3 mg/kg, AUC∞,PO / AUC∞,IV, read-out: BA (absolute bioavailability)
  bioavailability: 93.7%
[2]; 3 mg/kg, range over doses 0.3, 1 and 3 mg/kg, read-out: Oral bioavailability
  bioavailability: 84.5 to 97.2%
[3]
  IC50: 0.8 ± 0.3 nM
[3]; restrained recovery of SGLT2 activity after removal
  mode of SGLT2 inhibition: reversibly and competitively inhibited SGLT2
[3]; selectivity SGLT2 over SGLT1
  difference in IC50 values for SGLT2 versus SGLT1: 667 fold
[4]; PO 0.3 mg/kg
  AUC∞/D: 1757.6 ± 643.4
  Cmax/D: 171.2 ± 49.9
[4]; PO 1 mg/kg
  AUC∞/D: 1649.3 ± 483.4
  Cmax/D: 183.0 ± 95.6
[4]; PO 3 mg/kg
  AUC∞/D: 1385.4 ± 361.8
  Cmax/D: 100.2 ± 36.1
[4]; Sprague Dawley, PO 0.3 mg/kg
  AUC(0-t): 489 ± 192 ng·h/mL
[4]; Sprague Dawley, PO 1 mg/kg
  AUC(0-t): 1350 ± 565 ng·h/mL
[4]; Sprague-Dawley, PO 0.3 mg/kg
  AUC(0-inf): 527 ± 193 ng·h/mL
  Cmax: 51.3 ± 15 ng/mL
  half-life: 6.3 ± 2.3 h
  MRT: 8.5 ± 3.2 h
  Tmax: 2.5 ± 2.4 h
[4]; Sprague-Dawley, PO 1 mg/kg
  AUC(0-inf): 1650 ± 483 ng·h/mL
  Cmax: 183 ± 95.6 ng/mL
  half-life: 6.9 ± 2.1 h
  MRT: 9.9 ± 3.6 h
  Tmax: 2.5 ± 2.5 h
[4]; Sprague-Dawley, PO 3 mg/kg
  AUC(0-inf): 4160 ± 1090 ng·h/mL
  AUC(0-t): 3250 ± 572 ng·h/mL
  Cmax: 301 ± 108 ng/mL
  half-life: 10.3 ± 7.5 h
  MRT: 14.9 ± 10.6 h
  Tmax: 2.9 ± 2.1 h
[4]; Sprague-Dawley, 0.3 mg/kg, PO 0.3 mg/kg, AUC∞,PO / AUC∞,IV, read-out: BA (absolute bioavailability)
  bioavailability: 62.1%
[4]; Sprague-Dawley, 1 mg/kg, PO 1 mg/kg, AUC∞,PO / AUC∞,IV, read-out: BA (absolute bioavailability)
  bioavailability: 58.9%
[4]; Sprague-Dawley, 3 mg/kg, PO 3 mg/kg, AUC∞,PO / AUC∞,IV, read-out: BA (absolute bioavailability)
  bioavailability: 56.3%
[4]; Sprague-Dawley, 3 mg/kg, range over doses 0.3, 1 and 3 mg/kg, read-out: Oral bioavailability
  bioavailability: 56.3 to 62.1%
[5]; 1 mg/kg IV
  Recovery in feces relative to urine: about 22.7 fold
[5]; 1 mg/kg IV, 0–24 h
  Recovery, Feces: 15.2 ± 6.2 % of Dose
[5]; 1 mg/kg IV, 0–72 h, 1 mg/kg
  Recovery, Feces: 15.9 ± 5.9 % of Dose and 15.9 % of Dose
  Recovery, Urine: 0.7 ± 0.2 % of Dose and 0.7 % of Dose
[5]; 1 mg/kg IV, 24–48 h
  Recovery, Feces: 0.7 ± 0.8 % of Dose
  Recovery, Urine: 0.1 ± 0.0 % of Dose
[5]; 1 mg/kg PO, 0–24 h
  Recovery, Feces: 44.5 ± 11.8 % of Dose
  Recovery, Urine: 0.3 ± 0.1 % of Dose
[5]; 1 mg/kg PO, 0–72 h
  Recovery, Urine: 0.3 ± 0.1 % of Dose
[5]; 1 mg/kg PO, 0–72 h, 1 mg/kg
  Recovery, Feces: 45.5 % of Dose
[5]; 1 mg/kg PO, 24–48 h
  Recovery, Feces: 0.9 ± 0.4 % of Dose
[5]; 1 mg/kg PO, 48–72 h
  Recovery, Feces: 0.2 ± 0.0 % of Dose
  Recovery, Urine: 0.3 ± 0.1 % of Dose
[5]; Sprague-Dawley, rat, urine and feces, 1 mg/kg IV, 72 h, read-out: total recovery (feces + urine)
  dose excreted: ~16.6%
